Reference: PMC8003416, “Modulation of Human Phenylalanine Hydroxylase by 3-Hydroxyquinolin-2(1H)-One Derivatives” (Biomolecules, 2021)
Where “and” joins values, the source holds several entries; their conditions need not be identical. Equal values may be shown once.

Columns and labels:
[1] = target: T1, hPAH transiently expressed in HEK-293T cells (Homo sapiens, UniProt P00439); test: hPAH activity and protein level in transfected HEK-293T cells; assay type: cell-based; conditions: 24 h; for hPAH protein content after translation block / increase in hPAH expression (protein level): 50 μM; for hPAH protein content after translation block: then 10 μg/mL puromycin, 1, 3, 6 h; for increase in hPAH expression (protein level): western blot normalized to GAPDH; for hPAH activity in cell lysate: 50 and 100 μM, vs DMSO
T1 construct: expressed in transfected cells; host or cells: HEK-293T (ATCC CRL-11268)
T1 sequence (P00439 1-452): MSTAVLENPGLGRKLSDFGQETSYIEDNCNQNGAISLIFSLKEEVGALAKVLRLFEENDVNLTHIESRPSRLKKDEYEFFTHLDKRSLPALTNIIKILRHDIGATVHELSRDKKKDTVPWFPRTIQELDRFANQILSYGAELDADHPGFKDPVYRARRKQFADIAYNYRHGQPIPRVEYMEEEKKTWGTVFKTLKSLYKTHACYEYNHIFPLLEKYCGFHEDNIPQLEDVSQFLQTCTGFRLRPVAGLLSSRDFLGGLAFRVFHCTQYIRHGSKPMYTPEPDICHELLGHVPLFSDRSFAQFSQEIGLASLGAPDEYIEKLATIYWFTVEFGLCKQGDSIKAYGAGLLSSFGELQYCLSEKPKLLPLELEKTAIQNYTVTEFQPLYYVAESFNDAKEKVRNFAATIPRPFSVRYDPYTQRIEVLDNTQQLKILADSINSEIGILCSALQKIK
Experimental: HEK-293T cells (ATCC CRL-11268) were grown in RPMI 1640 medium (Gibco Life Technologies¸ Carlsbad, CA, USA) and supplemented with heat inactivated (60 °C for 30 min) fetal bovine serum (10%; v/v), penicillin (100 U/mL) and streptomycin (0.1 mg/mL) at 37 °C, in 5% CO2 in a humidified atmosphere. 1 × 10^5 cells were transfected with 750 ng of DNA (eukaryotic vector expressing hPAH; pEF-DEST51-PAH-WT) using lipofectamine (Invitrogen) as the transfection agent. Compounds (50 and 100 μM) or DMSO (0.5 and 1%) were added 4 h after transfection, and cells were further incubated for 24 h. For sample collection cells were trypsinized with 500 μL of TripLE Express (Gibco Life Technologies), centrifuged at 200× g for 5 min, at 4 °C, and washed with PBS. The pellet was resuspended in 50 μL of PBS with 200 μM PMSF and cells were disrupted by passage (≈20×) through a fine needle. The cell debris were removed by centrifugation at 14,000× g for 5 min at 4 °C and the obtained cell lysates were used for enzymatic activity assays and western blot analysis. Three independent cell cultures were performed.
For the stability assays, after 24 h incubation with compounds, protein translation was stopped by the addition of 10 μg/mL puromycin (Sigma-Aldrich). Cells were collected at 0, 1, 3, and 6 h after blockage of translation. Two independent cell cultures were performed.
The hPAH activity of cell lysates was measured essentially as described in [26] in a final volume of 200 μL containing 1 mM L-Phe, 250 mM Na-Hepes, pH 7, 0.1 mg/mL catalase and 20 μL of cell lysate. After 4 min of pre-incubation, 100 μM (NH4)2Fe(II)SO4 was added to the mixture. Two min after ferrous ammonium sulphate addition, the reaction was initiated by the injection of BH4 (75 μM). Tyrosine production was assessed by measuring the increase in fluorescence intensity (λexc 274 nm and λem 304 nm) in a FLUOstar Omega microplate reader (BMG Labtech), at 25 °C, during 30 min. Enzyme activity was determined as the amount of L-Tyr produced per min per mg of total protein. For each cell culture enzymatic assays were performed in triplicate.
For western blot analysis of cell lysates, 4 μg of total protein were applied on an 8 to 16% mini-protean TGX precast polyacrylamide gel (Bio-Rad), and the proteins were transferred to a polyvinylidene fluoride (PVDF; GE Healthcare) membrane and visualized by immunodetection using mouse anti-PAH (MAB 5278; Millipore; Burlington, MA, USA) and mouse anti-glyceraldehyde 3-phosphate dehydrogenase (GAPDH (loading control); sc-365062, Santa Cruz Biotechnology; Dallas, TX, USA) as the primary antibodies and the anti-mouse IgG-HRP (W402B, Promega; Madison, WI, USA) as the secondary antibody. Immunoblots were developed with enhanced chemiluminescent agents (ECL Prime; GE Healthcare) and the images were acquired in a charge-coupled device imager ChemiDoc XRS (Bio-Rad) using the Quantity One software (Bio-Rad).

[2] = target: T2, human phenylalanine hydroxylase (hPAH) (Homo sapiens, UniProt P00439); parameters: method as in PMID 12379147, PMID 15060071; conditions: ref [24],[25]; read-out: KD of L-Phe, previously reported SPR values; cited from earlier work
T2 construct: Recombinant full-length wild-type (WT) hPAH was expressed in E. coli Top10 cells in fusion with a hexa-histidyl peptide; made in house; host or cells: E. coli Top10
T2 sequence (P00439 1-452): T1 sequence (P00439 1-452)

Structure (SMILES): COC(=O)CC[C@H](NC(=O)c1c(O)c(=O)[nH]c2ccc(OC(F)(F)F)cc12)C(=O)OC [Compound 9]
- hPAH protein content after translation block [1]: hPAH protein content is maintained as a function of time
- increase in hPAH expression (protein level) [1]: 1.8 fold
- hPAH activity in cell lysate [1]: higher activity

Structure (SMILES): COC(=O)CNC(=O)c1c(O)c(=O)[nH]c2ccc(OC(F)(F)F)cc12 [Compound 11]
- hPAH protein content after translation block [1]: hPAH protein content is maintained as a function of time
- increase in hPAH expression (protein level) [1]: did not affect the hPAH protein levels
- hPAH activity in cell lysate [1]: higher activity

Structure (SMILES): N[C@@H](Cc1ccccc1)C(=O)O [L-Phe, L-phenylalanine, reference compound]
- Kd [2]: 97 µM and 136 µM
